Literature values as cited in patent US20250222110A1, “METHODS AND COMPOSITIONS FOR TREATMENT OF AGE-RELATED CATARACTS” (LIVIONEX, Inc., priority 2024, published 2025).

Conditions: 79° F.

- water solubility: 34 % w/v
SMILES: CS(C)(=O)=O [MSM, methylsulfonylmethane]
